According to publication PMC11079024, “Identification of a family of species-selective complex I inhibitors as potential anthelmintics” (Nature Communications, 2024):
Where two headings read alike, the source gives them in different places.

Biological target: M. musculus (heart) complex I (Mus musculus, UniProt P03888+Q91WD5+Q9DC70)
Assay: biochemical
Type: biochemical
Procedure: Six 8–10-week-old C57Bl/6 female mice (Charles River) were freshly dissected, and their livers and hearts collected into separate 1.5 mL microcentrifuge tubes. Organs were flash-frozen in liquid nitrogen and stored at −80 °C prior to use. The heart of a freshly slaughtered adult cow was obtained from a local abattoir (Peel Sausage Inc.), chopped into ~1-inch cubes and collected into 50 mL falcon tubes. Falcon tubes were flash-frozen in a container of dry ice and stored at −80 °C prior to use. Isolation of mitochondria from all mammalian tissue was carried out following the protocol described above. However, due to size, the initial homogenization of tissue was performed by 15 strokes in a dounce homogenizer (mouse heart) or with several 5 s pulses in small Nutribullet blender (cow heart). All mouse protocols for mouse care and dissection were reviewed and approved by the University of Toronto Animal Care Committee, in accordance with the Canadian Council on Animal Care.
The enzymatic activities of individual ETC complexes (I-IV) were assessed spectrophotometrically in isolated mitochondria using a Varioskan LUX Multimode plate reader (ThermoFisher Scientific). Mitochondrial pellets previously isolated were thawed on ice and resuspended in ice-cold isolation buffer (250 mM sucrose, 10 mM Tris (pH 7.5), 1 mM EDTA). The BCA assay (Walker, 1994) was used to quantify the protein concentration of mitochondria suspensions; solutions were diluted to a concentration of 0.2 mg/mL for use in all assays. For the complex I assay, mitochondria pellets were freeze-thawed on ice three times to increase enzyme accessibility. […] 20 μL mitochondria suspension was then added/mixed with a pipette to initiate the reaction. Immediately following the addition of mitochondria, absorbance was measured (complex I and II: 600 nm; complex III and IV: 550 nm) in 30 s intervals over 15 min. Enzymatic activity was determined in each reaction by plotting absorbance versus time and calculating the slope of the curve during the initial linear phase of the reaction. […] Percent activity of each complex was calculated by dividing the enzyme-specific activity of each well by the enzyme-specific activity of the corresponding solvent controls.
Chemical solutions were prepared in complex I assay buffer composed of 25 mM KPi buffer (pH 7.5), 3 mg/mL bovine serum albumin (BSA), 80 μM NADH, 60 μM decylubiquinone, 160 μM DCIP, 2 μM antimycin A and 2 mM KCN.
For preliminary screens of hit compounds, compounds were screened at 100 μM; data are the average of at least three biological replicates. The complex I and II activity assays were used for additional dose-response experiments. […] For dose responses of benzimidazole analogs, data represent the average of two biological replicates. For all other dose-responses, data represent the average of at least three biological replicates.

[1] = M. musculus (heart) mitochondria, mean of replicates, read-out: percent (%) in vitro complex I activity relative to solvent control
[2] = M. musculus (heart) mitochondria, single replicate, read-out: percent (%) in vitro complex I activity relative to solvent control

Sequence of M. musculus (heart) complex I (Q91WD5 34-463): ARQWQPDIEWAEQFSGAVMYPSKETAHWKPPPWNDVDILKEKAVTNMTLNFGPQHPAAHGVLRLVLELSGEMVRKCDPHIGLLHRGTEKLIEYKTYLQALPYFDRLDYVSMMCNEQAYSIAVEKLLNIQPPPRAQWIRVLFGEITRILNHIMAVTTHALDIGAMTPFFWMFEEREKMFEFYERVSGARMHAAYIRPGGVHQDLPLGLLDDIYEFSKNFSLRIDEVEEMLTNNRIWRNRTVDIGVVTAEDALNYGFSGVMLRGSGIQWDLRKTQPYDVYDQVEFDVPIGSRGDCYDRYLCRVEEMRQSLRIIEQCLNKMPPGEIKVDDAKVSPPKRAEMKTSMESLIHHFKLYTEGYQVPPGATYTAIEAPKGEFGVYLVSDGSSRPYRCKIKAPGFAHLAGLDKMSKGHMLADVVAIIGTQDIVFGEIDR
Sequence of M. musculus (heart) complex I (Q9DC70 36-224): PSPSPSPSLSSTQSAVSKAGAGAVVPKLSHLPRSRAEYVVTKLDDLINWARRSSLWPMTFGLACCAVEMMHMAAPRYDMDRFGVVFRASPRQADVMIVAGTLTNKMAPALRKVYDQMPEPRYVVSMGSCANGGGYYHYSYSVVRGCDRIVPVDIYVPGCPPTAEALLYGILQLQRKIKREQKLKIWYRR
Sequence of M. musculus (heart) complex I (P03888 whole entry): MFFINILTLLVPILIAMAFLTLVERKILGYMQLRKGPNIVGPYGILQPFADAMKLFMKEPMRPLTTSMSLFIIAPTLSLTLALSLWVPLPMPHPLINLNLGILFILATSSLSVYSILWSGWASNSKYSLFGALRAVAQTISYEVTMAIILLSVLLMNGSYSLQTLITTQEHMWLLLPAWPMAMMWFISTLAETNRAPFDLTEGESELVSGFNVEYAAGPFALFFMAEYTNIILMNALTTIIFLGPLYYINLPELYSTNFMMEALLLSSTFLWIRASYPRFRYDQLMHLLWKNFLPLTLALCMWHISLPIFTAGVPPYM

## COc1ccc(Cc2nccc3cc(OC)c(OC)cc23)cc1OC [Papaverine, reference compound]
[1]
  remaining activity at 0.125 µM: 92.5%
  remaining activity at 0.313 µM: 89.9%
  remaining activity at 0.625 µM: 89.4%
  remaining activity at 1.5 µM: 78.4%
  remaining activity at 3 µM: 63.1%
  remaining activity at 15 µM: 14.4%
[2]
  remaining activity at 0.125 µM: 91.5%
  remaining activity at 0.313 µM: 89.5%
  remaining activity at 0.625 µM: 91.6%
  remaining activity at 1.5 µM: 77.9%
  remaining activity at 3 µM: 62.6%
  remaining activity at 15 µM: 15.3%
37.5 µM, M. musculus (heart) mitochondria, mean of replicates, read-out: percent (%) in vitro complex I activity relative to solvent control
  remaining activity at 37.5 µM: 4.29%
75 µM, M. musculus (heart) mitochondria, mean of replicates, read-out: percent (%) in vitro complex I activity relative to solvent control
  remaining activity at 75 µM: 1.37%
Heart mitochondria
  IC50: 4.58 µM
